In DBAASP one finds MIC data, which are given here for ten compounds.

In brackets after ≈: the same amount, converted by molar mass. Several values for one entry are separate records, joined by “and”; a condition that tells them apart may be missing. Equal values may be shown once.

Some test systems named below: Escherichia coli W160-37; Pseudomonas aeruginosa; Staphylococcus aureus; Escherichia coli MG1655; Vibrio cholerae; Botrytis cinerea.
What all share (experiment): ≥ marks a high value that may be exact or a test limit, other limits are often not marked, values filed in µg/mL are converted to µM
Assay [1] concerns Candida albicans ATCC 90028.
Assay [2] relates to Candida albicans NCPF 1467.
Assay [3] concerns Escherichia coli ATCC 11775.
The subject of assay [4] is Escherichia coli ATCC 25922.
For assay [5], the system named is Escherichia coli NCTC 10418.
Assay [6] relates to Staphylococcus aureus ATCC 12493.
The subject of assay [7] is Staphylococcus aureus ATCC 12600.
In assay [8] the test system is Staphylococcus aureus ATCC 25923.
The subject of assay [9] is Staphylococcus aureus NCTC 10788.
For assay [10], the system named is Staphylococcus aureus NCTC 8325.
The test system of assay [11] is Pseudomonas aeruginosa ATCC 27853.
The test system of assay [12] is Staphylococcus aureus ATCC 33591.
In assay [13] the test system is Staphylococcus epidermidis ATCC 35984.
In assay [14] the test system is Bacillus subtilis MTCC 14416.
The subject of assay [15] is Staphylococcus aureus MTCC 9542.
The subject of assay [16] is Candida albicans ATCC 10231.
The test system of assay [17] is Enterococcus faecalis ATCC 29212.
The test system of assay [18] is Staphylococcus aureus ATCC 43300.
Assay [19] relates to Bacillus subtilis IFO 3513.
The test system of assay [20] is Escherichia coli IFO 12734.
Assay [21] relates to Staphylococcus aureus IFO 12732.
For assay [22], the system named is Bacillus megaterium ATCC 19213.
Assay [23] has as its system Bacillus subtilis NBRC 3513.
For assay [24], the system named is Staphylococcus aureus NBRC 12732.
In assay [25] the test system is Staphylococcus epidermidis NBRC 12933.
The subject of assay [26] is Candida albicans ATCC 64550.
For assay [27], the system named is Pseudomonas aeruginosa PAO1.

Broadly, the MIC is the smallest concentration in the dilution series that meets the test's criterion for growth inhibition. Low readings indicate greater potency, high ones weaker potency. Take `CC[C@H](C)[C@@H]1NC(=O)[C@H](CC(C)C)NC(=O)[C@@H](NC(=O)[C@H](Cc2ccccc2)NC(=O)[C@H](CC(C)C)NC(=O)[C@H](CCCCN)NC(=O)[C@@H]2CCCN2C(=O)[C@H](CC(C)C)NC(=O)[C@H](C)NC(=O)[C@H](C)NC(=O)[C@H](CC(C)C)NC(=O)[C@H](C)NC(=O)[C@H](CC(C)C)NC(=O)[C@H](CO)NC(=O)[C@H](CC(C)C)NC(=O)[C@@H](N)Cc2ccccc2)CSSC[C@@H](C(=O)O)NC(=O)[C@H](CCCCN)NC(=O)[C@H](CCCCN)NC(=O)[C@H](Cc2ccccc2)NC1=O` [FLSLALAALPKLFCLIFKKC]: the MIC in [1] was not below 100 µM; in [2], not below 32 µM; in assay [3] it was 25 µM (≈ 55.9 µg/mL); in assay [4], > 60 µM and 100 µM; in assay [5], not below 512 µM; in assay [6], not below 32 µM. Also, the MIC is 12.5 µM (≈ 28 µg/mL) in [7], more than 60 µM in assay [8], not below 32 µM in assay [9] and 13 µM (≈ 29.1 µg/mL) in assay [10].
Consider `CC[C@H](C)[C@H](NC(=O)CN)C(=O)N[C@@H](Cc1c[nH]c2ccccc12)C(=O)N[C@@H](CCCCN)C(=O)N[C@@H](CO)C(=O)N[C@@H](CC(C)C)C(=O)N[C@@H](Cc1ccccc1)C(=O)N[C@H](C(=O)N[C@@H](CCCCN)C(=O)N[C@@H](CC(C)C)C(=O)N[C@@H](CC(C)C)C(=O)N[C@@H](CCCCN)C(=O)NCC(N)=O)[C@@H](C)O` [GIWKSLFTKLLKG], for which the MIC in the assay on Escherichia coli W160-37 turned out to be 3.35 µM (≈ 5 µg/mL); with Pseudomonas aeruginosa it was 10.1 µM (≈ 15 µg/mL); with Staphylococcus aureus it was 6.71 µM (≈ 9.99 µg/mL).
With `CC(C)C[C@H](NC(=O)[C@H](Cc1ccccc1)NC(=O)[C@H](CCCCN)NC(=O)CN)C(=O)N[C@@H](CCCCN)C(=O)N[C@@H](CCCCN)C(=O)N[C@@H](C)C(=O)N[C@@H](CCCCN)C(=O)N[C@@H](CCCCN)C(=O)N[C@@H](Cc1ccccc1)C(=O)NCC(=O)N[C@@H](CCCCN)C(N)=O` [GKFLKKAKKFGK], the MIC is more than 371 µM in assay [11], more than 371 µM in [8], not below 371 µM in [12] and not below 262 µM in assay [13].
On to `CC[C@H](C)[C@@H]1NC(=O)[C@H](CCCCN)NC(=O)[C@@H](NC(=O)[C@H](CC(C)C)NC(=O)[C@@H](NC(=O)[C@H](CCC(N)=O)NC(=O)[C@@H]2CCCN2C(=O)[C@H](CC(C)C)NC(=O)[C@H](Cc2ccccc2)NC(=O)[C@H](CC(N)=O)NC(=O)[C@H](C)NC(=O)[C@H](C)NC(=O)[C@H](CC(C)C)NC(=O)CN)[C@@H](C)CC)CSSC[C@@H](C(N)=O)NC(=O)[C@H](CCCCN)NC(=O)[C@H](CCCN=C(N)N)NC(=O)[C@H](C)NC1=O` [GLAANFLPQILCKIARKC], for which the MIC in assay [14] was not below 51 µM; against Escherichia coli MG1655 it was not below 51 µM; in [11] it was more than 51 µM; in assay [15], 25.5 µM (≈ 49.9 µg/mL); in the assay with Vibrio cholerae it was 25.5 µM (≈ 49.9 µg/mL).
In the case of `CC[C@H](C)[C@H](N)C(=O)N[C@@H](CC(N)=O)C(=O)N[C@@H](CC(C)C)C(=O)N[C@@H](CCCCN)C(=O)NCC(=O)N[C@@H](CC(C)C)C(=O)N[C@H](C(=O)N[C@@H](CCCCN)C(=O)N[C@@H](CCCCN)C(=O)N[C@H](C(=O)N[C@@H](C)C(=O)N[C@@H](CO)C(=O)N[C@@H](CC(C)C)C(=O)N[C@@H](CC(C)C)C(=O)N[C@H](C(=O)O)[C@@H](C)O)C(C)C)[C@@H](C)CC` [INLKGLIKKVASLLT], the MIC against Botrytis cinerea was 5 µM (≈ 8.06 µg/mL); in assay [16], 100 µM (≈ 161 µg/mL); in [3] it was 25 µM (≈ 40.3 µg/mL); in [7] it was not below 100 µM.
On to `CC(C)C[C@H](NC(=O)[C@H](Cc1ccccc1)NC(=O)[C@@H](N)CCCCN)C(=O)N[C@@H](CCCCN)C(=O)N[C@@H](CCCCN)C(=O)N[C@@H](C)C(=O)N[C@@H](CCCCN)C(=O)N[C@@H](CCCCN)C(=O)N[C@@H](Cc1ccccc1)C(=O)NCC(=O)N[C@@H](CCCCN)C(=O)N[C@@H](C)C(N)=O` [KFLKKAKKFGKA], for which the MIC in assay [11] was 367 µM (≈ 512 µg/mL); in assay [8] it was more than 367 µM; in assay [12] it was not below 367 µM; in [13] it was not below 367 µM.
`CC[C@H](C)[C@H](NC(=O)[C@H](CCCCN)NC(=O)[C@H](CS)NC(=O)[C@H](CC(C)C)NC(=O)[C@@H](NC(=O)[C@H](CCC(N)=O)NC(=O)[C@@H]1CCCN1C(=O)[C@H](CC(C)C)NC(=O)[C@H](Cc1ccccc1)NC(=O)[C@H](CC(N)=O)NC(=O)[C@H](C)NC(=O)[C@H](C)NC(=O)[C@H](CC(C)C)NC(=O)CNC(=O)[C@H](C)NC(=O)[C@@H](NC(=O)[C@@H](N)CC(C)C)[C@@H](C)CC)[C@@H](C)CC)C(=O)N[C@@H](C)C(=O)N[C@@H](CCCN=C(N)N)C(=O)N[C@@H](CCCCN)C(=O)N[C@@H](CS)C(N)=O` [LIAGLAANFLPQILCKIARKC]: the MIC in assay [14] was 22.2 µM (≈ 50 µg/mL); in assay [17], 44.3 µM (≈ 100 µg/mL); against Escherichia coli MG1655 it was 11.1 µM (≈ 25 µg/mL); in assay [11] it was more than 44.3 µM; in assay [18] it was more than 44.3 µM; in assay [15] it was not below 44.3 µM. This compound showed an MIC against Vibrio cholerae of 11.1 µM (≈ 25 µg/mL).
For `CC[C@H](C)[C@H](NC(=O)[C@H](CC(C)C)NC(=O)[C@@H]1CCCN1C(=O)[C@H](Cc1c[nH]c2ccccc12)NC(=O)[C@H](CCCCN)NC(=O)[C@H](Cc1c[nH]c2ccccc12)NC(=O)[C@@H]1CCCN1C(=O)[C@H](CC(C)C)NC(=O)[C@H](CC(C)C)NC(=O)[C@@H]1CCCN1C(=O)[C@H](Cc1c[nH]c2ccccc12)NC(=O)[C@H](CCCN=C(N)N)NC(=O)[C@@H](N)CCCN=C(N)N)C(N)=O` [RRWPLLPWKWPLI], the minimal inhibitory concentration (MIC) in assay [19] was found to be 3.55 µM (≈ 6.25 µg/mL); in assay [20], 14.2 µM (≈ 25 µg/mL); in assay [21], 3.55 µM (≈ 6.25 µg/mL).
For `CC(C)C[C@H](NC(=O)[C@H](CCCCN)NC(=O)[C@H](CC(C)C)NC(=O)[C@H](CC(C)C)NC(=O)[C@H](Cc1c[nH]c2ccccc12)NC(=O)[C@@H](N)CCCN=C(N)N)C(=O)NCC(=O)N[C@@H](Cc1cnc[nH]1)C(=O)N[C@@H](Cc1cnc[nH]1)C(=O)NCC(=O)N[C@@H](CCCN=C(N)N)C(=O)O` [RWLLKLGHHGR], the MIC in assay [22] is not below 32 µM; in assay [23] it was not below 64 µM; in [24] it was not below 64 µM; in assay [25] it was not below 128 µM.
Consider `CC(C)[C@H](NC(=O)[C@H](CCCN=C(N)N)NC(=O)[C@@H](NC(=O)[C@H](CCCN=C(N)N)NC(=O)[C@H](Cc1c[nH]c2ccccc12)NC(=O)[C@H](CCCN=C(N)N)NC(=O)[C@@H](N)Cc1c[nH]c2ccccc12)C(C)C)C(=O)N[C@@H](Cc1c[nH]c2ccccc12)C(=O)N[C@@H](CCCN=C(N)N)C(N)=O` [WRWRVRVWR], for which the results for the MIC in [26] and in assay [27] were not below 100 µM and 1.79 µM (≈ 2.5 µg/mL), respectively.
